Laboratory results reported in BigSolDB 2.1.

O=[N+]([O-])O.c1ccc2c(CC3=NCCN3)cccc2c1
solubility (mole fraction)
Conditions	278.15 K	283.15 K	288.15 K	293.15 K	298.15 K	303.15 K	308.15 K	313.15 K	318.15 K	323.15 K
in 2-methoxyethanol	0.0347	0.04	0.046	0.0515	0.0601	0.0662	0.0769	0.0883	0.101	0.115
in ethylene glycol	0.0168	0.0212	0.0257	0.03	0.0359	0.0428	0.0506	0.061	0.0704	0.0823
in isopropanol	0.000577	0.000763	0.00101	0.00132	0.00161	0.00206	0.00258	0.00327	0.00389	0.00489
in methanol	0.0104	0.013	0.0155	0.0193	0.0234	0.029	0.0368	0.0473	0.057	0.0705
